The record followed here is patent US20180319865A1, “Identification of Novel Small Molecule Beta2 Integrin Agonists” (Rush University Medical Center, priority 2016, published 2018).

The target of the test is T1, mutant integrin CD11bE320A/CD18 (Homo sapiens, UniProt P11215, E336A).
T1 construct: expressed in transfected cells; host or cells: K562 (ATCC)
T1 sequence (P11215 17-1152 E336A): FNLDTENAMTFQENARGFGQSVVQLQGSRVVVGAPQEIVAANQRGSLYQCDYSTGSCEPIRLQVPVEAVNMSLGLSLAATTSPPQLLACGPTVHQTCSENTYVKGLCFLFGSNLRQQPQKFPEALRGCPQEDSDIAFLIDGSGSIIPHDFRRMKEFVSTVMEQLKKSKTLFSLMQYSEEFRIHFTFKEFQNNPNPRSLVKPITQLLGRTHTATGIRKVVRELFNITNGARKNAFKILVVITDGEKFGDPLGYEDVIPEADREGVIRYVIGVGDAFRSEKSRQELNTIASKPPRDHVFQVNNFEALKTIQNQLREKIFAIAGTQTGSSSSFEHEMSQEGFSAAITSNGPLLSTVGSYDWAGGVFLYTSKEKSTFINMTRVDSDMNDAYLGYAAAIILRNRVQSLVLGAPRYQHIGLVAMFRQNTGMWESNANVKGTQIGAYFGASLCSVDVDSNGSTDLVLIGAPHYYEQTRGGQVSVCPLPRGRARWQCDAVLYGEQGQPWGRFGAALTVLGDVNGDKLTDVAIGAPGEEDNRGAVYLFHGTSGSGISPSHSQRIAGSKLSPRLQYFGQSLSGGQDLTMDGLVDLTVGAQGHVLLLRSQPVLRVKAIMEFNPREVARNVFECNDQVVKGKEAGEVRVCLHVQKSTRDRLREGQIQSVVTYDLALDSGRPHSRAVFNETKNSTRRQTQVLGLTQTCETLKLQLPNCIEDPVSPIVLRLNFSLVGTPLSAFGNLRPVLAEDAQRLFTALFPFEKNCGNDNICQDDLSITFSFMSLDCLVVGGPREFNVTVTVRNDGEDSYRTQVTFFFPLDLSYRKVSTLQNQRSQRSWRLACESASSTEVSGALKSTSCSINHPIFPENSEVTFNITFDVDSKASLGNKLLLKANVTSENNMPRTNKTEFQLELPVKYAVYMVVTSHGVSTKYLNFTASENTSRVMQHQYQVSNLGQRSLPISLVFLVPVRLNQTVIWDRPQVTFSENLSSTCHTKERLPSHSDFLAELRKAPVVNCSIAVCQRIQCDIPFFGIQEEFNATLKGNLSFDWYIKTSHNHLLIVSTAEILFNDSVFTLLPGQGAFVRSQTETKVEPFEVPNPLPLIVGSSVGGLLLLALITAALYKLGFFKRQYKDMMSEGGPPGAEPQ
T1 sequence (P05107 23-769 partner): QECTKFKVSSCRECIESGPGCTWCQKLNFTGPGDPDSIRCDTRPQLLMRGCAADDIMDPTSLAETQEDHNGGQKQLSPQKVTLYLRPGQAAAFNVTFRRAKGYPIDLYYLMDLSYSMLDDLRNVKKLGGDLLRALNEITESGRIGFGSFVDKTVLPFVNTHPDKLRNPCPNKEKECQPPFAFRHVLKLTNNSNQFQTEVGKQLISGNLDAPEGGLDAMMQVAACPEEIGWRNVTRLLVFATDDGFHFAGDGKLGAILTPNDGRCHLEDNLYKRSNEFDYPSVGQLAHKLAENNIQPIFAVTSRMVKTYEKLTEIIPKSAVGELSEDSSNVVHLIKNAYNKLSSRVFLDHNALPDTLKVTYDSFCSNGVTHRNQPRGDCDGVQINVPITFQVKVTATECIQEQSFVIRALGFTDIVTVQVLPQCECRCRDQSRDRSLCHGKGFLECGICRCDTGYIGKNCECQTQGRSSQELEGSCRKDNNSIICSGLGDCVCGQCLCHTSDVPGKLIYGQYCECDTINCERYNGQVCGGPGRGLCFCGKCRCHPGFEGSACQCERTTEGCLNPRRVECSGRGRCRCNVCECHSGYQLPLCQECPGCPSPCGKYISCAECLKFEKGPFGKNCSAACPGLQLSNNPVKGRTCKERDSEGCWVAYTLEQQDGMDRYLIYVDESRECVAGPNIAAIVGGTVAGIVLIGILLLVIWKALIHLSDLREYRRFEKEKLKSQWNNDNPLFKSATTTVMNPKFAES
The test is described as follows: HTS cell adhesion assay, K562 E320A cells on immobilized fibrinogen. It counts as cell-based. Particulars: Table 3, adhesion to fibrinogen, five point dose-response. Here is the method: K562 cells stably expressing CD11c/CD18 (K562 CD11c/CD18) were generated similarly. […] K562 cells stably transfected with mutant integrin CD11bE320A/CD18 (K562 E320A) were generated according to literature protocols. All cell lines were maintained in Iscove's Modified Dulbecco's Medium (IMDM) supplemented with 10% heat-inactivated fetal bovine serum, 50 IU/mL penicillin and streptomycin and 0.5 mg/mL G418.
Cell adhesion assays with immobilized ligands were performed using the general protocol previously described and as illustrated in FIG. 1 [33]. Assays with all different K562 cell lines (K562, K562 CD11b/CD18, K562 CD11c/CD18 and K562 E320A) were performed in an identical fashion. Briefly, 384-well microplates (Corning 3700) were coated with 15 μg/mL fibrinogen (Fg) ligand in PBS^++ overnight at 4° C. At the same time, anti-CD18 (IB4) mAb was also coated. Subsequently, the coated wells were washed with 1% nonfat milk in TBS at room temperature for 1 hour. Next, the wells were washed 3 times with TBS, and the coated microplates were used in the HTS assays.
K562 CD11b/CD18, K562 CD11bE320A/CD18 and K562 CD11c/CD18 cells were washed with TBS, and cells were transferred to the Fg-coated wells of microplates in the assay buffer (Ca^2+ and Mg^2+ for physiological condition, Mn^2+ as the Positive control). A 1 μL aliquot of the compounds were transferred to each washed well with multichannel pipet from the 384-well plates.
The assay plates were incubated at 37° C. in the presence of small-molecule compounds for 30 min. To dislodge the non-adherent cell, the assay plates were gently inverted and kept in inverted position for 20 min at room temperature.
The cells were fixed with 37% formaldehyde in a small volume and the plates were kept inverted for 1 h. Upon the fixation, the solutions in the well were discarded. Next, the cells were fluorescently labeled with DAPI (0.5 μM final in TBS with 0.1% Triton X-100) and the quantitated with “Opera High Content Screening System” (Perkin Elmer).
Cell-adhesion under positive and negative control conditions was used to define the activity scale; signal corresponding to the number of non-small molecule treated cells adherent in activating buffer condition (in the presence of Mn^2+ ions as agonist, PC) was considered maximum (100% binding) and the signal corresponding to the number of non-small molecule treated cells adherent in basal buffer condition (in the presence of 1 mM each of Ca^2+ and Mg^2+, NC) was considered minimum (0% binding).
`Cc1ccc(C)c(N(CC(=O)N/N=C/c2ccc(-c3ccc([N+](=O)[O-])cc3)o2)S(=O)(=O)c2ccccc2)c1` [Compound 5334671]: the EC50 came out at 16.9 µM.
Turning to `C=CCn1c(SCC(=O)Nc2sccc2C#N)nc2sc(C)c(C)c2c1=O` [Compound 1564171], it took 14.8 µM to reach a half-maximal effect (EC50).
In turn, `COc1ccc2cc(/C=N/NC(=O)c3ccc(CN(c4ccc(C)c(C)c4)S(C)(=O)=O)cc3)c(Cl)nc2c1` [Compound 9564362] showed an EC50 of 12.2 µM.
Turning to `CCn1c(COc2ccc3c(c2)CCCC3)nnc1SCC(=O)Nc1ccc(C(=O)OC)cc1` [Compound 2958500], the EC50 stood at 8.94 µM.
With `CCOc1cc(/C=C2/N=C(c3ccc(C(C)(C)C)cc3)OC2=O)cc(Cl)c1OS(C)(=O)=O` [Compound 2182821], the midpoint of the response, the EC50, lay at 8.51 µM.
The compound `CCC(=O)Nc1ccc(C(=O)CSc2nnc(-c3ccccc3F)n2C2CC2)cc1` [Compound 2448744] came in with a half-maximal effective concentration (EC50) of 21.8 µM.
Compound `N#Cc1c(-c2ccccc2)cc(-c2ccco2)c(C#N)c1N` [Compound 625239] displayed an EC50 of 7.74 µM.
As for `N#Cc1ccc(CSc2nnc(NC(=O)C3CC(=O)N(c4ccc5c(c4)OCCO5)C3)s2)cc1` (stereo not drawn) [Compound 4831224], the EC50 was 11.1 µM.
Still for that read-out and setting: the result for `N#Cc1ccsc1NC(=O)CSc1ncnc2ccccc12` [Compound 2369720] reads 11.3 µM; that for `O=[N+]([O-])c1ccc(-c2ccc(/C=N/c3c(-c4ccco4)nc4ccccn34)o2)c(Cl)c1` [Compound 9617832], 11.7 µM.
On to `CCOc1ccc(C(=O)Nc2ccc(N3CCCC3)cc2)cc1` [Compound 650825], for which the EC50 amounted to 9.86 µM.
In turn, `COc1cccc2sc(Nc3nc(-c4cc5ccccc5oc4=O)cs3)nc12` [Compound 7109922] came in with a concentration giving a half-maximal response (EC50) of 8.76 µM.
On to `CC(=O)NC(=S)Nc1ccc(-c2nc3ccc(C)cc3s2)cc1` [Compound 1226649], for which it took 8.47 µM to reach a half-maximal effect (EC50).
Compound `CC(C)CCn1c(SCC(=O)N2CC(=O)Nc3ccccc32)nc2scc(-c3cccs3)c2c1=O` [Compound 2566842] came in with a 50% effective concentration (EC50) of 7.57 µM.
As to `COc1cc(NC(=O)c2noc3c2CCC3)c(OC)cc1Cl` [Compound 3238190], a half-maximal response (EC50) required 10.5 µM.
Turning to `CC(=O)c1ccc(NC(=O)CSc2ccc(-c3ccc4c(c3)OCO4)nn2)cc1` [Compound 7206282], a half-maximal response (EC50) required 10.7 µM.
With `Cc1csc(NC(=O)c2cc(-c3ccco3)nc3ccccc23)n1` [Compound 2366866], the response was half-maximal at 8.59 µM (EC50).
Regarding `O=C(Nc1nc(-c2ccncc2)cs1)c1ccco1` [Compound 2081288], the EC50 came out at 12.7 µM.
On the same count and under the same terms, the result for `O=C(CSc1nc2sc3c(c2c(=O)n1-c1ccccc1)CCCC3)NCc1ccco1` [Compound 1322134] reads 12.1 µM; that for `Nc1c(C(=O)Nc2cccc(Cl)c2Cl)sc2nc(-c3cccnc3)ccc12` [Compound 1976060], 0.315 µM; that for `CN(CCC#N)C(=O)COC(=O)c1c2c(nc3ccccc13)/C(=C/c1ccco1)CC2` [Compound 5801934], 7.85 µM.
Still for that read-out and setting: the result for `Cc1sc2nc(CSc3nc4ccccc4c(=O)n3CCCN3CCOCC3)[nH]c(=O)c2c1C` [Compound 2566737] reads 8.42 µM; that for `CCC(=O)Nc1ccc(C(=O)CSc2nc3ccc(C)cc3[nH]2)cc1` [Compound 2549650], 10.3 µM.
In the case of `O=C(CN1CCc2ccccc21)Nc1ccc2c(c1)OCO2` [Compound 2064203], the EC50 stood at 8.97 µM.
The compound `COC(=O)/C(=C1/Oc2cc3c(cc2S1)OCO3)C(F)(F)F` [Compound 3237460] yielded an EC50 of 135 µM.
Turning to `Cc1ccc(/C=C2\SC(=S)N(CC(=O)Nc3ncc(Cc4ccccc4Cl)s3)C2=O)cc1` [Compound 1871747], the EC50 came to 15.4 µM. Compared with the last compound, the EC50 is about 8.8-fold lower.
Regarding `NC(=S)N/N=C/c1coc2cc(Cl)ccc2c1=O` [Compound 6879466], a half-maximal response (EC50) required 171 µM.
Regarding `O=C(Cn1c2ccccc2c(=O)c2cc([N+](=O)[O-])ccc21)Nc1ccccc1Cl` [Compound 15944880], the EC50 was found to be 10.1 µM.
As to `CCN(CC)c1ccc(C(=O)OCC(=O)Nc2cc3oc4ccccc4c3cc2OC)cc1` [Compound 2078838], the EC50 stood at 72.4 µM.
On to `Cc1csc(NC(=O)CSc2nc3sc(C)c(C)c3c(=O)[nH]2)n1` [Compound 650604], for which the midpoint of the response, the EC50, lay at 9.43 µM. This EC50 lies about 7.7-fold lower than the previous one.
In turn, `Cc1ccc2nc3sc(C(=O)Nc4ccc(N5CCOCC5)cc4)c(N)c3cc2c1` [Compound 1442651] returned an EC50 of 10.8 µM.
`COc1cccc(OCc2cc(/C=N/NC(=O)c3nc(Cl)c(Cl)c(N)c3Cl)ccc2OC)c1` [Compound 6881723]: the EC50 turned out to be 7.33 µM.
`CC(=O)c1ccc(N2C(=O)C3C(C2=O)C(C(=O)c2ccc(Cl)cc2)N2CCCC32)cc1` (stereo not drawn) [Compound 665589] registered an EC50 of 14.5 µM.
`O=C(NCCN1C(=O)S/C(=C\c2ccccc2)C1=O)c1cc(S(=O)(=O)N2CCOCC2)c(Cl)cc1Cl` [Compound 5774232]: the EC50 is 8.84 µM.
In turn, `Cc1ccc(-n2c(=O)c(C#N)cc3c(=O)n4cccc(C)c4nc32)cc1` [Compound 9550569] gave a concentration for a half-maximal effect (EC50) of 8.22 µM.
For the compound `COc1ccc(-c2cc(C(=O)OCC(=O)Nc3ccc4c(c3)OCO4)c3ccccc3n2)cc1` [Compound 2338283], the “EC50 E320A” value is given as “Infinite”.
In turn, `COc1cccc2cc(/C(C)=N/Nc3nc(-c4cc(C)ccc4C)cs3)c(=O)oc12` [Compound 9594695] came in with an EC50 of 17.5 µM.
`COc1ccc(/C=c2\sc3nc(-c4ccccc4OC)nn3c2=O)c(OC)c1` [Compound 1827856]: the EC50 was found to be 7.03 µM.
In turn, `COc1ccc(-n2c(C)cc(C(=O)COC(=O)c3cc(NC(=O)c4cccs4)c(OC)c(OC)c3)c2C)cc1` [Compound 2108710] yielded an EC50 of 62.5 µM.
The compound `O=C(Nc1ccc(Br)cc1Cl)c1cnccn1` [Compound 1245695] gave an EC50 of 8.47 µM.
Compound `CC(C)CN(C(=O)COC(=O)c1cc2c(s1)CCC2)C1CCS(=O)(=O)C1` (stereo not drawn) [Compound 2998734] registered an EC50 of 8.02 µM. The EC50 values of the last two compounds are within 1.5-fold of each other.
`CCCCN1C(=O)/C(=C/c2ccc(N3CCCCCC3)cc2)C(=O)NC1=S` [Compound 2067755]: the response was half-maximal at 78.3 µM (EC50).
As to `NC(=O)c1cc(-c2ccccc2)sc1NC(=O)Cc1ccc(S(=O)(=O)N2CCOCC2)s1` [Compound 2121076], the EC50 is 19.4 µM.
Compound `Cc1cc(C)cc(-n2c3nc4ccccc4nc3c3c(=O)n(Cc4ccco4)cnc32)c1` [Compound 660761] gave an EC50 of 8.8 µM.
For the compound `Cc1ccc(NC(=O)COc2ccc(/C=C3/SC(=Nc4ccccc4)N(Cc4cccnc4)C3=O)cc2)cc1` [Compound 11840403], a half-maximal effect (EC50) was put at 13.4 µM.
Consider `N#Cc1cccc(NC(=O)CSc2ccc3c4c(cccc24)C(=O)c2ccccc2-3)c1` [Compound 4835204], for which the “EC50 E320A” value was “Infinite”.
`COc1ccc(OC)c(NS(=O)(=O)Cc2ccccc2)c1` [Compound 743624] yielded a 50% effective concentration (EC50) of 15.7 µM.
The same measure, in the same setting: the result for `Cc1oc(-c2ccc(F)cc2)cc1-c1nn2c(-c3ccoc3C)nnc2s1` [Compound 2145571] reads 12.1 µM; that for `COc1ccc(-c2nn(C)c(=O)c3ccccc23)cc1NC(=O)Cn1nc(C)c2ccccc2c1=O` [Compound 1314910], 11.7 µM.
For the compound `O=C(/C=C/c1ccco1)c1ccc(NC(=O)C23CC4CC(CC(C4)C2)C3)cc1` [Compound 7424594], the EC50 stood at 10.3 µM. The EC50 values of the last two compounds are within 1.5-fold of each other.
Regarding `Cc1nc2c(c(=O)n1CCC1=CCCCC1)c1nc3ccccc3nc1n2/N=C/c1ccco1` [Compound 6880170], the EC50 came out at 11.3 µM. This EC50 and that of the compound before are within 1.5-fold of each other.
Consider `Cc1ccc(-c2noc(C3CCCN(S(=O)(=O)c4ccc(S(=O)(=O)N(C)C)cc4)C3)n2)o1` (stereo not drawn) [Compound 3226283], for which the 50% effective concentration (EC50) was found to be 6.69 µM.
Compound `CC(C)c1nnc(NC(=O)c2c(O)c3cccc4c3n(c2=O)CCC4)s1` [Compound 54680928] yielded a concentration for a half-maximal effect (EC50) of 16.1 µM.
Take `O=C1NC(=S)N(C2CC2)C(=O)/C1=C/c1ccc2c(c1)CCN2CCCCl` [Compound 1993471]: the EC50 came to 164 µM.
With `COc1ccc(/C=N/NC(=O)C2c3ccccc3-c3ccccc32)cc1` [Compound 9557044], the EC50 came to 10.5 µM.
As to `Cc1ccc(-c2cc(C(=O)N/N=C/C=C/c3ccco3)c3ccccc3n2)cc1C` [Compound 1764811], the concentration giving a half-maximal response (EC50) came out at 19.3 µM.
On to `CCCC(=O)Nc1ccc(-c2cnc(-c3ccc(NC(=O)CCC)cc3)nc2)cc1` [Compound 1272696], for which the “EC50 E320A” value was “Infinite”.
Regarding `CCCSc1nnc(NC(=O)c2sc3nc(-c4cccs4)ccc3c2N)s1` [Compound 1773030], a half-maximal response (EC50) required 7.74 µM.
With `O=C(NNC(=O)c1cccc(S(=O)(=O)N2CCN(c3ccccc3)CC2)c1)c1ccc(Cl)cc1` [Compound 4412067], the EC50 came to 11.4 µM.
In turn, `O=C(Cc1cccs1)Nc1nnc(SCc2cccc3ccccc23)s1` [Compound 7191378] registered a half-maximal effective concentration (EC50) of 8.13 µM.

What is called EC50 is the concentration at which the effect is half-maximal.
